Test results from paper PMC7665024, “Anti-apoptotic BCL-2 regulation by changes in dynamics of its long unstructured loop” (Communications Biology, 2020).

How the values were obtained:
BAX [1] = assay: FRAP-GUV pore-forming activity of BAX, 70-kDa F-dextran; assay type: biochemical, mouse; set-up: FRAP pore-forming activity / FRAP pore-forming activity, average / p (FRAP-70k-p), Average: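 unitless ratio D/D0 relative to diffusion coefficient after Triton X-100 disruption of GUVs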
Description: (§1) Briefly, GUVs were incubated with the proteins of interest over a period of time (Fig. 2c), followed by photobleaching within individual GUVs. A series of fluorescent images were collected over time after the photobleaching and then analyzed to yield the diffusion coefficients of Fluor molecules (including FITC-labeled 70-kDa, and Alexa-647-labeled 10-kDa probes) using the theoretical approach detailed in the “Methods” section. As Fluor molecules are homogeneously dispersed in the solution (outside and inside of GUVs) before the incubation with BAX and activators, it is reasonable to expect that the larger the induced pore area on the surface of a GUV, the greater the diffusion coefficient. Thus, the diffusion coefficient is directly related to the pore-forming activity of activated BAX. As the pore-forming activity is proportional to the concentration of BAX[18], we fixed the total amount of added BAX in all of the measurements below (see the “Methods” section).
(§2) Full-length BAX and variants were prepared as previously described[18],[22],[35]. Mouse BAX was cloned into pTYB1 vector (New England Biolabs, Inc.), resulting pTYB1-BAX construct. The pTYB1-BAX construct encoding a fusion protein of BAX with chitin-binding peptide was separated by a self-cleavable intein tag to obtain a full-length BAX. Wild-type BAX has two native cysteine residues at 62 and 126. Cysteine-free construct (C62S/C126S) was used to prepare single-cysteine BAX variants for conjugating fluorescence probes (e.g., BAX136C in Fig. 1d). Point mutations of recombinant BAX were generated using a QuikChange mutagenesis kit. Proteins were expressed in E. coli (ER2566) strain (New England Biolabs, Inc.) and purified without detergent. Bacterial cultures were grown at 37 °C in LB medium containing 0.1 g/L ampicillin to reach an OD600 of 1.0. BAX expression was induced by addition of 0.3 mM IPTG at 30 °C for 6−8 h. The cells were harvested by centrifugation and resuspended in ice-cold lysis buffer (20 mM Tris–HCl, pH 7.0, 500 mM NaCl and 1 mM PMSF). The resuspended pellet was sonicated on ice for 30 min, followed by centrifugation at 12,800 × g for 50 min. […] The resins were incubated in a pre-equilibrated buffer (20 mM sodium phosphate, pH 8.0, 100 mM NaCl, 60 mM dithiothreitol (DTT)) for 48 h. Proteins were eluted from column and further purified by a SEC using a HiLoad 16/60 Superdex 75 column (GE Healthcare) pre-equilibrated in PB buffer (20 mM sodium phosphate, pH 7.4, 100 mM NaCl). Purified proteins were confirmed by SDS–PAGE with Coomassie blue staining. Protein concentration was determined using absorption spectroscopy at 280 nm.
(§3) All lipids used were purchased from Avanti Polar Lipids. […] Texas Red 1,2-dihexadecanoyl-sn-glycero-3-phosphoethanolamine (TR-DPPE) (Invitrogen) of 0.05% was added to the lipid mixture for virtualization of GUV[18],[26],[27]. GUVs were prepared with the gel-assisted swelling on a polyvinyl alcohol (PVA) gel[39]. A 5% (w/w) solution of PVA (MW 145,000) was prepared by stirring PVA in ddH2O while heating at 90 °C. PVA solution was spread on a microscope coverslip (18 × 18 mm, Matsunami, Japan) and then dried at 50 °C. Lipid mixture (1 mg/mL) dissolved in chloroform were spread on the dry PVA film and placed under vacuum for 30 min to evaporate the solvent. Lipids were rehydrated for 1 h in PB buffer. The resulting GUVs were transferred to an Eppendorf tube using blunt tips.
(§4) FRAP measurements were performed as described previously. […] All reactions were at room temperature and the final volume was 200 μL.

BAX [2] = assay: FRAP-GUV pore-forming activity of BAX, 10-kDa F-dextran; assay type: biochemical, mouse; set-up: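 unitless ratio D/D0 relative to diffusion coefficient after Triton X-100 disruption of GUVs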; details: 10 kDa F-dextran
Description: as §1, §2, §3, §4

CC1(C)CCC(CN2CCN(c3ccc(C(=O)NS(=O)(=O)c4ccc(NCC5CCOCC5)c([N+](=O)[O-])c4)c(Oc4cnc5[nH]ccc5c4)c3)CC2)=C(c2ccc(Cl)cc2)C1 [ABT-199, Venetoclax, reference compound]
pore-forming activity / effect on BAX-induced membrane pores on GUV (in words) (BAX [1]; 10- and 70-kDa F-dextran, BAX 1 µM, BimBH3 2 µM, BCL-2 1 µM, ABT-199 30 µM, room temperature, Fig. 2c): BimBH3 is released from EEE to induce BAX activation and membrane pores | FRAP pore-forming activity, average (BAX [1]; 70 kDa F-dextran, mean of trials): 0.0000762 | FRAP pore-forming activity (BAX [1]; 70 kDa F-dextran, trial1): 0.0000000 | FRAP pore-forming activity (BAX [1]; 70 kDa F-dextran, trial2): 0.000165 | FRAP pore-forming activity (BAX [1]; 70 kDa F-dextran, trial3): 0.0000000 | FRAP pore-forming activity (BAX [1]; 70 kDa F-dextran, trial4): 0.000165 | FRAP pore-forming activity (BAX [1]; 70 kDa F-dextran, trial5): 0.0000000 | FRAP pore-forming activity (BAX [1]; 70 kDa F-dextran, trial6): 0.0000000 | FRAP pore-forming activity (BAX [1]; 70 kDa F-dextran, trial7): 0.000165 | FRAP pore-forming activity (BAX [1]; 70 kDa F-dextran, trial8): 0.0000000 | FRAP pore-forming activity (BAX [1]; 70 kDa F-dextran, trial9): 0.0000000 | FRAP pore-forming activity (BAX [1]; 70 kDa F-dextran, trial10): 0.0000000 | FRAP pore-forming activity (BAX [1]; 70 kDa F-dextran, trial11): 0.000165 | FRAP pore-forming activity (BAX [1]; 70 kDa F-dextran, trial12): 0.000165 | FRAP pore-forming activity (BAX [1]; 70 kDa F-dextran, trial13): 0.000165 | FRAP pore-forming activity, average (BAX [2]; mean of trials): 0.0002024 | FRAP pore-forming activity (BAX [2]; trial1): 0.0000000 | FRAP pore-forming activity (BAX [2]; trial2): 0.0001754 | FRAP pore-forming activity (BAX [2]; trial3): 0.0000000 | FRAP pore-forming activity (BAX [2]; trial4): 0.0001754 | FRAP pore-forming activity (BAX [2]; trial5): 0.0000000 | FRAP pore-forming activity (BAX [2]; trial6): 0.0000000 | FRAP pore-forming activity (BAX [2]; trial7): 0.0001754 | FRAP pore-forming activity (BAX [2]; trial8): 0.0008772 | FRAP pore-forming activity (BAX [2]; trial9): 0.0007018 | FRAP pore-forming activity (BAX [2]; trial10): 0.0000000 | FRAP pore-forming activity (BAX [2]; trial11): 0.0001754 | FRAP pore-forming activity (BAX [2]; trial12): 0.0001754 | FRAP pore-forming activity (BAX [2]; trial13): 0.0001754
